Results taken from the OPERA property sets (Mansouri et al. 2018).

Which boiling point does the source give for Nc1ccc(-c2ccccc2)cc1 here?
The boiling point was 302 °C.

What about the melting point of the same compound?
The melting point was 53.5 °C.

Which boiling point does the source give for O=C(Cc1ccccc1)c1ccccc1 here?
Its boiling point is 320 °C.

And the log10 vapour pressure (mmHg)?
Its log10 vapour pressure (mmHg) is -3.74.

And the melting point?
The melting point was 60 °C.

With c1ccc(-c2ccccc2-c2ccccc2-c2ccccc2)cc1 as the compound, how does the boiling point read?
Its boiling point is 420 °C.

And the melting point?
Its melting point is 118 °C.

Which melting point does the source give for Cc1c(Cc2cc(C(C)(C)C)c(O)c(C(C)(C)C)c2)c(C)c(Cc2cc(C(C)(C)C)c(O)c(C(C)(C)C)c2)c(C)c1Cc1cc(C(C)(C)C)c(O)c(C(C)(C)C)c1 here?
The melting point was 244 °C.

And the ready biodegradability?
Its ready biodegradability is “not readily biodegradable”.

With CCOc1cccc(C(=O)O)c1 as the compound, how does the melting point read?
Its melting point is 137 °C.

Which results are given for ClCC(Cl)(Cl)C(Cl)(Cl)Cl?
boiling point: 216 °C; melting point: 26 °C

For CCCCCCC(=O)CCCCC, which melting point is on record?
The melting point was 10 °C.

Which melting point does the source give for COc1cc(C)nc(-n2nc(C)cc2OC)n1 here?
The melting point was 91 °C.

Which boiling point does the source give for CC=CCCC=CC here?
Its boiling point is 124 °C.

And the melting point?
Its melting point is -76 °C.

With Cc1c(C)c2ccccc2c2ccccc12 as the compound, how does the melting point read?
The melting point was 144 °C.

Which boiling point does the source give for CCCC(O)C(C)C (centres undefined) here?
Its boiling point is 141 °C.

What about the log10 vapour pressure (mmHg) of the same compound?
Its log10 vapour pressure (mmHg) is 0.129.

For CCCCCCCCCCCC[N+](C)(C)CC(=O)[O-], which ready biodegradability is on record?
The ready biodegradability was “readily biodegradable”.

With Nc1cccc2cnccc12 as the compound, how does the melting point read?
The melting point was 128 °C.

What does the source list for CC(Cc1ccccc1)c1ccccc1 (centres undefined)?
boiling point: 280 °C; melting point: 52 °C

For COC1=C[C@H](C)[C@H]2C[C@H]3OC(O)C[C@H]4C(C)=C(OC)C(=O)C([C@@]34C)[C@@]2(C)C1=O (some centres undefined), which melting point is on record?
The melting point was 227 °C.

Which boiling point does the source give for CC1=CCC(C(=O)O)C1(C)C (centres undefined) here?
Its boiling point is 242 °C.

And the melting point?
The melting point was 40.5 °C.

For CC(O)(P(=O)(O)O)P(=O)(O)O, which ready biodegradability is on record?
Its ready biodegradability is “readily biodegradable”.

With Clc1cc(Cl)c2cccc(Cl)c2c1Cl as the compound, how does the log10 Koa read?
The log10 Koa was 8.41.

For CSSC, which boiling point is on record?
The boiling point was 110 °C.

And the log10 Henry constant (atm·m³/mol)?
Its log10 Henry constant (atm·m³/mol) is -2.92.

What about the log10 vapour pressure (mmHg) of the same compound?
The log10 vapour pressure (mmHg) was 1.46.

And the melting point?
Its melting point is -85 °C.

And the ready biodegradability?
Its ready biodegradability is “not readily biodegradable”.

With Cc1occc(=O)c1O as the compound, how does the melting point read?
Its melting point is 162 °C.

For CC(C)OC(=O)C(C)Cl (centres undefined), which boiling point is on record?
Its boiling point is 152 °C.

For COc1ccc2c(OC(C)=O)c(OC)c(OC)c(OC(C)=O)c2c1, which melting point is on record?
Its melting point is 77.5 °C.

Which boiling point does the source give for O=CC1CCCO1 (centres undefined) here?
The boiling point was 142 °C.

Which boiling point does the source give for C here?
The boiling point was -162 °C.

What about the log10 Koa of the same compound?
Its log10 Koa is -0.38.

What about the log10 vapour pressure (mmHg) of the same compound?
Its log10 vapour pressure (mmHg) is 5.67.

And the melting point?
Its melting point is -182 °C.

With ON=C1CCCCC1=NO as the compound, how does the melting point read?
The melting point was 192 °C.

For CCC(C)CS (centres undefined), which boiling point is on record?
Its boiling point is 116 °C.

And the log10 vapour pressure (mmHg)?
Its log10 vapour pressure (mmHg) is 1.3.

Which melting point does the source give for COC(=O)C1(S(=O)(=O)c2ccc(Br)cc2)CCCC1 here?
Its melting point is 104 °C.

For C=CC=C(C)C, which boiling point is on record?
The boiling point was 76.5 °C.

With CC(C)C(C(=O)OC(C#N)c1cccc(Oc2ccc(Br)cc2)c1)c1ccc(OC(F)F)cc1 (centres undefined) as the compound, how does the log10 vapour pressure (mmHg) read?
The log10 vapour pressure (mmHg) was -8.92.

For Ic1cc(I)c(I)c(I)c1I, which melting point is on record?
Its melting point is 172 °C.

For COc1ccc2c(c1)O[C@H]1c3ccc(O)cc3OC[C@@H]21, which melting point is on record?
Its melting point is 128 °C.
